Mutagenic call data for two molecules are collected here from PubChem BioAssay AID1259407 (Chemical Carcinogenesis Research Information System (CCRIS), 2018).

The test system of the data set is CCRIS mutagenicity, Ames/micronucleus/aberration tests. Briefly: CCRIS mutagenicity studies.

Active and inactive are the calls of the source. How the calls were made is not given here.

With `COCCOC(C)=O`, the mutagenic call reads like this: (End Point: IN VITRO CHROMOSOMAL ABERRATIONS, Test System: CHO-LB CELLS, Metabolic Activation: NONE) “inactive; negative”; (End Point: IN VITRO CHROMOSOMAL ABERRATIONS, Test System: CHO-LB CELLS, Metabolic Activation: RAT, LIVER, S-9, AROCLOR 1254) “active; positive”; (Test System: AMES SALMONELLA TYPHIMURIUM, Strain/Indicator: TA97, Metabolic Activation: HAMSTER, LIVER, S-9, AROCLOR 1254 (10 OR 30%), Method: PREINCUBATION) “inactive; negative”; (Test System: AMES SALMONELLA TYPHIMURIUM, Strain/Indicator: TA97, Metabolic Activation: NONE, Method: PREINCUBATION) “inactive; negative”; (Test System: AMES SALMONELLA TYPHIMURIUM, Strain/Indicator: TA97, Metabolic Activation: RAT, LIVER, S-9, AROCLOR 1254 (10 OR 30%), Method: PREINCUBATION) “inactive; negative”; (Test System: AMES SALMONELLA TYPHIMURIUM, Strain/Indicator: TA98, Metabolic Activation: HAMSTER, LIVER, S-9, AROCLOR 1254 (10 OR 30%), Method: PREINCUBATION) “inactive; negative”. Moreover, the mutagenic call runs as follows: (Test System: AMES SALMONELLA TYPHIMURIUM, Strain/Indicator: TA98, Metabolic Activation: NONE, Method: PREINCUBATION) “inactive; negative”; (Test System: AMES SALMONELLA TYPHIMURIUM, Strain/Indicator: TA98, Metabolic Activation: RAT, LIVER, S-9, AROCLOR 1254 (10 OR 30%), Method: PREINCUBATION) “inactive; negative”; (Test System: AMES SALMONELLA TYPHIMURIUM, Strain/Indicator: TA100, Metabolic Activation: HAMSTER, LIVER, S-9, AROCLOR 1254 (10 OR 30%), Method: PREINCUBATION) “inactive; negative”; (Test System: AMES SALMONELLA TYPHIMURIUM, Strain/Indicator: TA100, Metabolic Activation: NONE, Method: PREINCUBATION) “inactive; negative”; (Test System: AMES SALMONELLA TYPHIMURIUM, Strain/Indicator: TA100, Metabolic Activation: RAT, LIVER, S-9, AROCLOR 1254 (10 OR 30%), Method: PREINCUBATION) “inactive; negative”; (Test System: AMES SALMONELLA TYPHIMURIUM, Strain/Indicator: TA1535, Metabolic Activation: HAMSTER, LIVER, S-9, AROCLOR 1254 (10 OR 30%), Method: PREINCUBATION) “inactive; negative”. Also, the mutagenic call by setting is: (Test System: AMES SALMONELLA TYPHIMURIUM, Strain/Indicator: TA1535, Metabolic Activation: NONE, Method: PREINCUBATION) “inactive; negative”; (Test System: AMES SALMONELLA TYPHIMURIUM, Strain/Indicator: TA1535, Metabolic Activation: RAT, LIVER, S-9, AROCLOR 1254 (10 OR 30%), Method: PREINCUBATION) “inactive; negative”; (Test System: AMES SALMONELLA TYPHIMURIUM, Strain/Indicator: TA1537, Metabolic Activation: HAMSTER, LIVER, S-9, AROCLOR 1254 (30%), Method: PREINCUBATION) “inactive; negative”; (Test System: AMES SALMONELLA TYPHIMURIUM, Strain/Indicator: TA1537, Metabolic Activation: NONE, Method: PREINCUBATION) “inactive; negative”; (Test System: AMES SALMONELLA TYPHIMURIUM, Strain/Indicator: TA1537, Metabolic Activation: RAT, LIVER, S-9, AROCLOR 1254 (30%), Method: PREINCUBATION) “inactive; negative”.

On to `CI`, for which the mutagenic call runs as follows: (Test System: AMES SALMONELLA TYPHIMURIUM, Strain/Indicator: TA98, Metabolic Activation: NONE, Method: GAS EXPOSURE) “inactive; negative”; (Test System: AMES SALMONELLA TYPHIMURIUM, Strain/Indicator: TA98, Metabolic Activation: RAT, LIVER, S-9, PHENOBARBITAL AND BETA--NAPHTHOFLAVONE, Method: GAS EXPOSURE) “inactive; negative”; (Test System: AMES SALMONELLA TYPHIMURIUM, Strain/Indicator: TA100, Metabolic Activation: NONE, Method: DESICCATOR) “active; positive”; (Test System: AMES SALMONELLA TYPHIMURIUM, Strain/Indicator: TA100, Metabolic Activation: NONE, Method: GAS EXPOSURE) “active; positive”; (Test System: AMES SALMONELLA TYPHIMURIUM, Strain/Indicator: TA100, Metabolic Activation: RAT, LIVER, S-9, PHENOBARBITAL AND BETA--NAPHTHOFLAVONE, Method: GAS EXPOSURE) “active; positive”; (Test System: AMES SALMONELLA TYPHIMURIUM, Strain/Indicator: TA1535, Metabolic Activation: NONE, Method: GAS EXPOSURE) “inactive; negative”. The mutagenic call was “inactive; negative” (Test System: AMES SALMONELLA TYPHIMURIUM, Strain/Indicator: TA1535, Metabolic Activation: RAT, LIVER, S-9, PHENOBARBITAL AND BETA--NAPHTHOFLAVONE, Method: GAS EXPOSURE); “active; positive” (Test System: AMES SALMONELLA TYPHIMURIUM, Strain/Indicator: TA1535, Metabolic Activation: RAT, LIVER, S-9, Method: SPOT); “inactive; negative” (Test System: AMES SALMONELLA TYPHIMURIUM, Strain/Indicator: TA1537, Metabolic Activation: NONE, Method: GAS EXPOSURE); “inactive; negative” (Test System: AMES SALMONELLA TYPHIMURIUM, Strain/Indicator: TA1537, Metabolic Activation: RAT, LIVER, S-9, PHENOBARBITAL AND BETA--NAPHTHOFLAVONE, Method: GAS EXPOSURE); “inactive; negative” (Test System: E. COLI, Strain/Indicator: WP2UVRA, Metabolic Activation: NONE, Method: GAS EXPOSURE); “inactive; negative” (Test System: E. COLI, Strain/Indicator: WP2UVRA, Metabolic Activation: RAT, LIVER, S-9, PHENOBARBITAL AND BETA--NAPHTHOFLAVONE, Method: GAS EXPOSURE). For the same molecule, the mutagenic call was “active; positive” (Test System: MOUSE LYMPHOMA, Strain/Indicator: L5178Y (TK+/TK-), Metabolic Activation: NONE, Method: SUSPENSION/PLATE) and “active; positive” (Test System: MOUSE LYMPHOMA, Strain/Indicator: L5178Y (TK+/TK-), Metabolic Activation: RAT, LIVER, S-9, AROCLOR 1254, Method: SUSPENSION/PLATE).
